# From ChEMBL document CHEMBL4602683, “The Isolation of Pyrroloformamide Congeners and Characterization of Their Biosynthetic Gene Cluster” (J Nat Prod, 2020)
# Tests used:
# Staphylococcus aureus [1] = experiment: Antibacterial activity against Methicillin resistant Staphylococcus aureus by resazurin dye based microdilution method; format: functional
# Escherichia coli = experiment: Antibacterial activity against Escherichia coli by resazurin dye based microdilution method; format: functional
# Klebsiella pneumoniae = experiment: Antibacterial activity against Klebsiella pneumoniae by resazurin dye based microdilution method; format: functional
# Staphylococcus aureus [2] = experiment: Antibacterial activity against Staphylococcus aureus ATCC 29213 by resazurin dye based microdilution method; format: functional
# Caco-2 = experiment: Cytotoxicity against human Caco2 cells by CCK8 assay; format: functional, cell-based
# A549 = experiment: Cytotoxicity against human A549 cells by CCK8 assay; format: functional, cell-based
# PC-3M = experiment: Cytotoxicity against human PC3M cells after 72 hrs by MTT assay; format: functional, cell-based
SMILES,MIC (Staphylococcus aureus [1]) [µg/mL],MIC (Escherichia coli) [µg/mL],MIC (Klebsiella pneumoniae) [µg/mL],MIC (Staphylococcus aureus [2]) [µg/mL],IC50 (Caco-2) [nM],IC50 (A549) [nM],IC50 (PC-3M) [nM]
O=CNc1c2sscc-2[nH]c1=O,2,1,1,4,–,–,–
CN(C=O)C1=C2SCSC=C2NC1=O,> 64,> 64,> 64,> 64,> 64000,> 64000,–
CN(C=O)C1=C2C(=CSS2(=O)=O)NC1=O,8,32,64,8,> 64000,> 64000,–
CN(C=O)c1c2sscc-2[nH]c1=O,0.5,0.5,0.5,0.5,570,1340,1700
CC(=O)NC[C@H]1CN(c2ccc(N3CCOCC3)c(F)c2)C(=O)O1 [LINEZOLID],1,> 64,> 64,1,–,–,–
